For one compound, tolerability results are on record in article PMC10600239, “Selective MCL-1 inhibitor ABBV-467 is efficacious in tumor models but is associated with cardiac troponin increases in patients” (Communications Medicine, 2023).

In this data set the test system is AMO-1 xenografts. The data set is described as follows: AMO-1 xenograft efficacy (tumor volume, body weight). In kind it is in vivo, mouse. The following applies: mice, 25 mg/kg on a Q7D × 2 schedule. On the procedure: All animal studies were conducted in accordance with the guidelines approved by the Institutional Animal Care and Use Committees of AbbVie. The research protocol was approved by In Vivo Pharmacology at AbbVie prior to study initiation but was not publicly registered or disclosed. Female C.B-17 SCID-beige mice (AMO-1, OPM-2, NCI-H929, and OCI-AML2 xenografts) and female NSG mice (MV4-11-Red.Fluc systemic) were purchased from Charles River Laboratories (Wilmington, MA). Animals were housed in a light cycle-controlled room with HEPA filtration at 22 °C. Animals had nesting and climbing cage topper as the primary environmental enrichment. Animals were inoculated subcutaneously in the right flank with 5 × 10^6 (AMO-1, OPM-2, NCI-H929, and OCI-AML2) or intravenous (IV) with 5 × 10^6 (MV4-11-Red.Fluc). The inoculation volume (0.2 mL) comprised a 50:50 mixture of cells in growth media and Matrigel (BD Biosciences) for subcutaneous injections and 100% phosphate-buffered saline for IV administration. All cell lines used in this publication were authenticated using IDEXX for STR profiling as well as their IMPACT and human IMPACT panels for pathogen screening. Electronic calipers were used to measure the length and width of each tumor 2 to 3 times per week. Tumor volume was estimated by applying the following equation: volume = length × width^2/2. All groups remained blinded during measurements and dosing; only veterinary staff were aware of group identity. When tumors reached approximately 200 mm^3, mice were randomized by match and distributed into treatment and control groups. All xenograft trials were conducted using 5 to 10 mice per group, and all mice were ear tagged and monitored individually throughout the studies. […] Tumor burden in the systemic MV4-11-Red.Fluc experiment was measured using an IVIS® spectrum from PerkinElmer by taking the total photon flux of the entire dorsal side of an individual mouse. […] A background control mouse that was tumor naive but received D-Luciferin was placed in the upper left corner of each image. The total flux from this animal was subtracted from the total flux of each animal present in the image.
For in vivo studies, maximal tumor growth inhibition (TGI) was calculated as the greatest treatment response using the following equation: Maximal TGI = (1 − mean tumor volume of the treated group/mean tumor volume of the vehicle control group) × 100. The tumor growth delay (TGD) percentage was determined as the percentage increase of the median time period for the treatment group to reach an arbitrary tumor volume of 1000 mm^3 relative to the vehicle control group. […] A power analysis was conducted using historical data to determine the number of animals required to yield significance of 0.05 at a 30% difference. […] Data from experiments in vivo were analyzed using the student’s t-test for TGI values and the Mann–Whitney U test for TGD using Excel and GraphPad Prism. Fisher’s exact test was used to probe significance of differences in response frequency.

Take `Cc1c(Cl)c2c(Cl)c(C)c1-c1c(-c3ccc(F)cc3)sc3ncnc(c13)O[C@@H](C(=O)O)Cc1cc(ccc1OCc1ccnc(-c3ccc(OC[C@H]4COCCO4)cc3)n1)OC[C@@H](CN1CCN(C)CC1)O2` [ABBV-467]: the tolerability entry is “not well-tolerated”.
